Assay results reported in patent publication EP2332529A1, “Substituted aromatic diamines as ligands of vesicular glutamate transporter 1 and 2 (vGLUT1 and vGLUT2)” (Grünenthal GmbH, priority 2009, dated 2011).
Like-named read-outs stand apart in the source and are kept apart here.

Key:
[1] = system: vGLUT1- bzw. vGLUT2-Transporter; assay: Glutamate uptake in rat crude synaptic vesicles ([3H]-glutamate); type: biochemical, Ratte; conditions: for vGLUT (Ratte), Hemmung [%]: test concentration not given
Text: Die agonistische bzw. antagonistische Wirkung der zu untersuchenden Verbindungen am vGLUT1- bzw. vGLUT2-Transporter der Spezies Ratte kann mit folgendem Assay bestimmt werden.
Glutamat-Uptake in Rattenvesikel ('rat crude synaptic vesicles')
Die Präparation von Vesikeln wurde aus Rattengehirn-Homogenaten (männlichen Ratten, Stamm Wistar SPF, 150-250 g Gewicht) durchgeführt gemäß Roseth et al. (1995) J. Neurochem. 65: 96-103, der sich auf Whittaker et al. (1964) Biochem J. 90, 293-303 und Fykse und Fonnum (1988) J. Neurochem. 50: 1237-1242 bezieht.
Hierzu wurden frisch entnommene Rattengehirne in 0,32 M Saccharose, 10 mM TRIS-maleat, 1 mM EGTA, pH 7,4 (10 ml/g Frischgewicht) mit einem Potter-Homogenisator (Fa. Braun/Melsungen; 5 Kolbenhübe bei 800 Upm) unter Eiskühlung homogenisiert und anschließend für 10 Minuten bei 3.000 g und 4°C zentrifugiert. Der resultierende Überstand wurde bei 20.000 g für 30 Minuten bei 4°C zentrifugiert. Das entstandene Pellet wurde dann im Verhältnis 1:3 mit 10 mM TRIS-maleate, 0,1 mM EGTA, pH 7,4 osmotisch geschockt und die Suspension bei 17000g für 30 min (4°C) zentrifugiert. Die im Überstand verbliebenen Vesikel wurden nun auf einen Dichtegradienten aus 0,6 M Saccharose in 10 mM TRIS-maleat, 1 mM EGTA, pH 7.4 und 0.4 M Saccharose in 10 mM TRIS-maleat, 1 mM EGTA, pH 7.4 geschichtet. Eine Ultrazentrifugation der Gradienten im Ausschwingrotor bei 65000g für 2h (4°C) schloss sich an. Die Vesikel-Fraktion wurde von der 0.4 M Saccharose-Bande isoliert und im Uptake-Versuch eingesetzt.
Die Substratlösung für den Uptake von [^3H]-Glutamat bestand aus ATP (neutralisiert mit Trisma base; 2 mM im Endansatz), Glutamat (0.5 mM im Endansatz) und ^3H-Glutamat (0.5 µCi im Endansatz). In 14 ml-Reagiergefäßen (Sarstedt, Artikel-Nr.: 798438) wurden jeweils 0,3 ml Gesamtvolumina (n=2/Probe) pipettiert in der folgenden Reihenfolge: 1.) 165 µl Inkubationspuffer (110 mM Kaliumtartrat, 10 mM TRIS-maleat, pH 7,4, 4 mM MgCl2), 2.) 10 µl Testsubstanz oder Vehikelkontrolle oder blank, 3.) 100 µl synaptische Vesikel. Es schloss sich eine Vorinkubation von 15 min bei 30°C an (nur blank-Ansätze befanden sich hierbei auf Eis). Danach wurde der Uptake durch Zugabe von 25 µl der oben beschriebenen Substratlösung gestartet. Die Reaktion wurde nach 5 min durch Zugabe von 7,0 ml eiskalter 150 mM KCl gestoppt. Anschließend wurden die Proben mit Hilfe des Brandel Cell Harvesters Typ M-24R über einen Membranfilter der Porengröße 0,8 µm abgesaugt und zweimal mit eiskalter 150 mM KCl nachgewaschen. Die Messung erfolgte am beta-Counter nach 15 h in 10 ml Szintillatorflüssigkeit (Filter Count).

[2] = system: Mäusen (NMRI); assay: Formalin test in the mouse (second phase); type: in vivo; conditions: Maus i.p., 21,5 mg/kg
Text: Die Untersuchung zur Bestimmung der antinociceptiven Wirkung der Verbindungen der allgemeinen Formel (I) wird im Formalin-Test an männlichen Mäusen (NMRI, 25 bis 35 g Körpergewicht, Iffa, Credo, Belgien) durchgeführt.
Im Formalin-Test werden gemäß D. Dubuisson et al., Pain 1977, 4, 161-174 die erste (frühe) Phase (0 bis 15 Minuten nach der Formalin-Injektion) und die zweite (späte) Phase (15 bis 60 Minuten nach der Formalin-Injektion) unterschieden. Die frühe Phase stellt als direkte Reaktion auf die Formalin-Injektion ein Modell für Akutschmerz dar, während die späte Phase als Modell für persistierenden (chronischen) Schmerz angesehen wird (T. J. Coderre et al., Pain 1993, 52, 259-285). Die entsprechenden Literaturbeschreibungen werden hiermit als Referenz eingeführt und gelten als Teil der Offenbarung. […]
Anschließend wird für einen Untersuchungszeitraum von drei Minuten in der zweiten (späten) Phase des Formalin-Tests (21 bis 24 Minuten nach der Formalin-Injektion) das nociceptive Verhalten durch Beobachtung der Tiere kontinuierlich erfasst. Die Quantifizierung des Schmerzverhaltens erfolgt durch Summation der Sekunden, in denen die Tiere in dem Untersuchungszeitraum ein Lecken und Beißen der betroffenen Pfote zeigen. […]

[3] = system: NMRI-Mäuse; assay: Phenylquinone-induced writhing test in the mouse; type: in vivo; conditions: 10 mg/kg
Text: Die Untersuchung der Verbindungen der allgemeinen Formel (I) auf analgetische Wirksamkeit wurde im Phenylchinon-induzierten Writhing an der Maus, modifiziert nach I.C. Hendershot und J. Forsaith (1959) J. Pharmacol. Exp. Ther. 125, 237-240 durchgeführt. Die entsprechende Literaturbeschreibung wird hiermit als Referenz eingeführt und gilt als Teil der Offenbarung.
Dazu wurden männliche NMRI-Mäuse mit einem Gewicht von 25 bis 30 g verwendet. Gruppen von 10 Tieren pro Verbindungsdosis erhielten 10 Minuten nach intravenöser Gabe der zu untersuchenden Verbindungen 0,3 ml/Maus einer 0.02%igen wässrigen Lösung von Phenylchinon (Phenylbenzochinon, Fa. Sigma, Deisenhofen, Deutschland; Herstellung der Lösung unter Zusatz von 5 Gew.-% Ethanol und Aufbewahrung im Wasserbad bei 45°C) intraperitoneal appliziert. Die Tiere wurden einzeln in Beobachtungskäfige gesetzt. Mit Hilfe eines Drucktastenzählers wurde die Anzahl der schmerzinduzierten Streckbewegungen (sogenannte Writhingreaktionen = Durchdrücken des Körpers mit Abstrecken der Hinterextremitäten) 5 bis 20 Minuten nach der Phenylchinon-Gabe ausgezählt. Als Kontrolle wurden Tiere mit geführt, die Vehikellösung (i.v.) und Phenylchinon (i.p.)erhalten hatten. Alle Verbindungen wurden in der Standarddosierung von 10 mg/kg getestet. […]

[4] = system: Sprague-Dawley Ratten; assay: Neuropathic pain in the rat, Bennett model (chronic constriction injury, cold allodynia); type: in vivo, Ratte
Procedure: Die Untersuchung auf Wirksamkeit im neuropathischen Schmerz wurde im Bennett-Modell (chronic constriction injury; Bennett und Xie, 1988, Pain 33: 87-107) untersucht.
Sprague-Dawley Ratten mit einem Gewicht von 140-160 g werden unter Nembutal-Narkose mit vier losen Ligaturen des rechten nervus ischiaticus versehen. Die Tiere entwickeln an der vom geschädigten Nerv innervierten Pfote eine Überempfindlichkeit, die nach einer Erholungsphase von einer Woche über etwa vier Wochen mittels einer 4°C kalten Metallplatte quantifiziert wird (Kälte-Allodynie). Die Tiere werden für einen Zeitraum von 2 min. auf dieser Platte beobachtet und die Anzahl der Wegziehreaktionen der geschädigten Pfote wird gemessen. Bezogen auf den Vorwert vor Substanzapplikation wird die Substanzwirkung über einen Zeitraum von einer Stunde an vier Zeitpunkten (15, 30, 45, 60 min. nach Applikation) bestimmt und die resultierend Fläche unter der Kurve (AUD) sowie die Hemmung der Kälte-Allodynie zu den einzelnen Messpunkten in Prozent Wirkung zur Vehikelkontrolle (AUD) bzw. zum Ausgangswert (Einzelmesspunkte) ausgedrückt (%MPE). Die Gruppengröße beträgt n=10, die Signifikanz einer anti-allodynischen Wirkung wird über eine Varianzanalyse (repeated measures ANOVA; * p ≤ 0.05; Armitage und Berry, 1987, Stat. Methods in Medical Research, London: Blackwell Scientific Publications) bestimmt.

[5] = compound freshly dissolved from the solid substance, read-out: vGLUT (Ratte), IC50-Fest

Molecule | IC50 ([1]; read-out: vGLUT (Ratte), IC50) [nM] | vGLUT (Ratte), Hemmung [%] [1] [%] | IC50 [1, 5] [nM] | further results
O=C(O)c1cc(NC(=O)c2cccc3ccccc23)c(C(=O)O)cc1NC(=O)c1cccc2ccccc12 [Beispiel 7, 2,5-Bis-[(naphthalin-1-carbonyl)-amino]-terephthalsäure] | 2340 | 78 | – | –
Nc1ccc(-c2ccc(N)c(C(=O)O)c2)cc1C(=O)O [Beispiel 14, 4,4'-Bisaminobiphenyl-3,3'-dicarbonsäure, Dinatriumsalz] | – | 24 | 47800 | –
Cc1ccc(S(=O)(=O)Nc2ccc(-c3ccc(NS(=O)(=O)c4ccc(C)cc4)c(C(=O)O)c3)cc2C(=O)O)cc1 [Beispiel 11, 4,4'-Bis(tolyl-4-sulfonylamino)biphenyl-3,3'-dicarbonsäure] | – | 97 | 1530 | –
CC(=O)Nc1cc(C(=O)c2ccc(C(=O)O)c(NC(C)=O)c2)ccc1C(=O)O [Beispiel 2, 4,4'-Carbonyl-bis(2-acetamidobenzoesäure)] | – | 47 | – | –
Cc1ccc(S(=O)(=O)Nc2ccc(-c3ccc(NS(=O)(=O)c4ccc(C)cc4)c(C(=O)O)c3)cc2C(=O)O)cc1 [Beispiel 8, 4,4'-Bis-(4-methylphenylsulfonamid)biphenyl-3,3'-dicarbonsäure, Dinatriumsalz] | – | 92 | 490 | Formalin-Test Maus i.p.; Hemmung [%] [2]: 51%@21,5 mg/kg; Phenylchinon-Writhing-Test Maus i.v. [Anzahl Writhing-Reaktionen in 15 min. p. appl.] ([3]; Kontrolle 9,1±0,41): 7,8±1,16@10 mg/kg,; Anzahl Tiere mit ≤ 3 Writhing-Reaktionen ([3]; Maus i.v.): (Anzahl Tiere mit ≤ 3 Writhing-Reaktionen: 1); Bennett-Test Ratte; Hemmung [%] ([4]; Ratte, 4,64 mg/kg (i.v.)): 37%@ 4,64 mg/kg (i.v.)
2,2'-(3,3'-Sulfonyl-bis-(4,1-phenylen)-bis-(azanediyl))-bis-(oxomethylen)-bis-(azanediyl)dibenzoesäure [Beispiel 10] | – | 86 | 2350 | –
O=C(O)c1cc(-c2ccc(NC(=O)c3cccc4ccccc34)c(C(=O)O)c2)ccc1NC(=O)c1cccc2ccccc12 [Beispiel 5, 4,4'-Bis-[(naphthalin-1-carbonyl)-amino]-biphenyl-3,3'-dicarbonsäure] | – | 50 | – | –
O=C(Cc1ccccc1)Nc1ccc(Cc2ccc(NC(=O)Cc3ccccc3)c(C(=O)O)c2)cc1C(=O)O [Beispiel 1, 5,5'-Methylen-bis(2-(2-phenylacetamido)benzoesäure)] | 9160 | 61 | – | –
Nc1ccccc1C(=O)Nc1ccc(-c2ccc(NC(=O)c3ccccc3N)c(C(=O)O)c2)cc1C(=O)O [Beispiel 13, 4,4'-Bis-(2-aminobenzamido)biphenyl-3,3'-dicarbonsäure, Dinatriumsalz] | – | 96 | 600 | –
Nc1ccccc1C(=O)Nc1ccc(-c2ccc(NC(=O)c3ccccc3N)c(C(=O)O)c2)cc1C(=O)O [Beispiel 6, 4,4'-Bis-(2-aminobenzamido)biphenyl-3,3'-dicarbonsäure] | 89.7 | 101 | 38 | –
O=C(Nc1ccc(-c2ccc(NC(=O)c3ccccc3)c(C(=O)[O-])c2)cc1C(=O)[O-])c1ccccc1.[Na+].[Na+] [Beispiel 12, 4,4'-Bis-(benzamido)-biphenyl-3,3'-dicarbonsäure, Dinatriumsalz] | – | 102 | 39 | Bennett-Test Ratte; Hemmung [%] ([4]; Ratte, 0,2 mg/kg/5 ml (i.p)): 38%@0,2 mg/kg/5 ml (i.p)
O=C(c1ccc(C(=O)O)c(NC(=O)c2cccc3ccccc23)c1)c1ccc(C(=O)O)c(NC(=O)c2cccc3ccccc23)c1 [Beispiel 3, 4,4'-Carbonyl-bis(2-(1-naphthamido)benzoesäure)] | 380 | 97 | – | –
Nc1ccccc1C(=O)Nc1ccc(-c2ccc(NC(=O)c3ccccc3N)c(C(=O)O)c2)cc1C(=O)O [Beispiel 4, 4,4'-Bis-(2-amino-benzoylamino)-biphenyl-3,3'-dicarbonsäure] | 43.2 | 99 | 93 | –
Cc1ccc(S(=O)(=O)Nc2ccc(Cc3ccc(NS(=O)(=O)c4ccc(C)cc4)c(C(=O)O)c3)cc2C(=O)O)cc1 [Beispiel 9, 5,5'-Methylen-bis(2-(4-methylphenylsulfonamido)benzoesäure)] | – | 47 | – | –
